From patent publication US20210239702A1, “METHODS FOR PREDICTING RESPONSIVENESS OF LUNG CANCER PATIENTS TO HER2-TARGETING THERAPIES” (MEMORIAL SLOAN KETTERING CANCER CENTER, priority 2018, published 2021)

Key:
[1] = system: HER2-amplified salivary gland cancers; conditions: FLIM-FRET positive in 3/3
Text: (§1) Patients with stage 4 or recurrent HER2 mutant lung cancers were enrolled in the cohort, as illustrated in the basket trial scheme in FIG. 1. Other cohorts of this basket trial included HER2 amplified lung, bladder and other solid tumors, as illustrated by FIG. 1. HER2 mutations were identified through next generation sequencing (NGS) including exon 20 insYVMA, insGSP, insTGT, single base pair substitutions L755A, L755S, V777L, V659E, S310F or other likely activating mutations. Other inclusion criteria included age (≥18 years old), Karnofsky performance status (≥70%), measurable disease by Response Evaluation Criteria in Solid Tumors (RECIST) v1.1, and adequate left ventricular, bone marrow, and hepatic function.

HER2 mutant lung cancers = system: HER2 mutant lung cancers
Text: as §1
Physical examination and safety assessments were performed every 3 weeks. Tumor assessments using contrast enhanced computed tomography of the chest, abdomen, and pelvis were performed at baseline, week 6, week 12, and every 12 weeks thereafter until disease progression was observed. Brain imaging was not routinely performed unless clinically indicated. Left ventricular ejection fraction measurements by echocardiography or multi-gated acquisition scan were performed at baseline then every 3 months. […] Secondary objectives included assessment of progression-free survival (PFS) and toxicity according to the National Cancer Institute Common Terminology Criteria for Adverse Events version 4.1 (NCI CTCAE v4.1). The molecular associations between HER2 mutations, HER2 amplification and HER2 protein expression were examined using different molecular diagnostic assays whenever archival tissue was available. NGS assessed for HER2 mutation and amplification, fluorescence in situ hybridization (FISH) assessed for HER2 amplification, and HER2 protein overexpression was assessed by immunohistochemistry (IHC) and quantitative mass spectrometry. FISH was performed using FDA approved probe sets (PathVysion, Abbott Molecular, Chicago, Ill. and HER2 IQFISH pharmDx, Agilent, Santa Clara, Calif.) and positive HER2 amplification was defined as HER2/CEP17 ratio ≥2.0. HER2 protein by IHC was assessed using the 4B5 Ventana antibody (Ventana Medical Systems, Oro Valley Ariz.). Quantitative HER2 protein by selected reaction monitoring mass spectrometry on fixed-formalin paraffin-embedded tissue was performed using methods previously validated in breast cancers, with ≥740 amol/ug as the cutoff for high HER2 expression (see Nuciforo P., et al., Mol. Oncol., 10:138-147 (2016)).
Target accrual was a minimum of 7 patients (stage 1) and maximum of 18 patients (stage 1 and 2) in each cohort. The primary endpoint was best confirmed overall response rate (ORR) per RECIST v1.1. The Simon's optimal two-stage design was employed with a multiple testing adjusted type I error rate for each cohort. For a targeted agent where higher response rates were expected, a true ORR of ≤10% was considered unacceptable (null hypothesis), whereas a true ORR of ≥40% merited further study (alternative hypothesis). In the first stage, 7 patients were accrued; if there were no responses observed at interim analysis of the 7 patients in a particular cohort, the cohort was closed. Otherwise, 11 additional patients were accrued for a total of 18 patients. […] The overall family-wise error rate at the study level was <10%. The exact 95% CI for ORR was calculated using the Clopper-Pearson method. PFS time was estimated by the Kaplan-Meier method. Follow-up time was calculated from the start of treatment to the most recent patient follow-up assessment.

ado-trastuzumab emtansine
response among FLIM-FRET positive patients [1]: all 3 patients responded | outcome of patients with active untreated brain metastases at enrollment (HER2 mutant lung cancers; 2 patients, first response assessment): both patients had progression of disease systemically and in the central nervous system | patients with progression of disease as best response (HER2 mutant lung cancers; 3 of 18 patients): 17% | responders among patients pretreated with prior systemic therapy (HER2 mutant lung cancers; 6 of 15 pretreated patients): 40% | median PFS for the responders (HER2 mutant lung cancers; 95% CI 4 months to not reached): 6 months | median PFS for all patients (HER2 mutant lung cancers; N=18, 95% CI 3 to 9 months): 5 months | overall response rate (ORR, all partial and confirmed) (HER2 mutant lung cancers; RECIST v1.1, 3.6 mg/kg IV every 21 days, 18 patients, 95% CI 22-69%): 44% | patients who achieved stable disease (HER2 mutant lung cancers; in vivo): 39% | patients with confirmed radiologic partial response (HER2 mutant lung cancers; out of 18 patients with ERBB2-mutant lung cancers): 8 | longest PFS observed / durable disease control (HER2 mutant lung cancers; patient with stable disease as best response, -27% tumor shrinkage): ≥ 11 months | median time to response from start of treatment (HER2 mutant lung cancers; range 1 to 4 months): 2 months | median duration of response (HER2 mutant lung cancers; range 2 to 9 months): 4 months
